Values quoted from earlier work, collected in patent US20080241076A1, “Method and composition for increasing Erythropoietin” (priority 2007, published 2008).

Tests used:
erythrocyte = conditions: Carnitine supplementation
[1] = human, in vivo
hemoglobin levels = conditions: hemodialysis patients
responsiveness to EPO = conditions: in vivo
renal EPO production = conditions: animal studies
kidney production of EPO = conditions: dog kidneys; substances given separately
[2] = in-vitro, 14C-labeled
[3] = test system: erythrocyte 2,3-bisphosphoglycerate (2,3-BPG); conditions: following phosphate loading
induced clots = conditions: dogs with induced clots
blood clots = conditions: human trials, feeding
blood flow = conditions: animal study

In the case of `C[N+](C)(C)CC(O)CC(=O)[O-]` (stereo not drawn) [Carnitine], the erythrocyte survival time (erythrocyte) is given as “increase”.

For `[Se]` [selenium], the “elemental concentration in whole blood and plasma” value [1] is listed as “significant increase”.

For `O=C1O[C@H]([C@@H](O)CO)C(O)=C1O` [Vitamin C], the hemoglobin levels (hemoglobin levels) is given as “significant increases” and the “responsiveness to EPO” value (responsiveness to EPO) is given as “improve”.

In the case of Vitamin A, the “renal EPO production” value (renal EPO production) is given as “increase”.

For `CCCCC/C=C\C/C=C\C/C=C\C/C=C\CCCC(=O)O` [Arachidonic Acid, all-cis-5,8,11,14-eicossatetraenoic acid], the “kidney production of EPO” value (kidney production of EPO) is listed as “increased” and the “prostaglandins produced from Arachidonic acid” value [2] is listed as “PGD2, PGE2, PGF2 alpha and 6-keto-PGF1 alpha”.

In the case of Vitamin E, the endogenous glutathione (endogenous glutathione) is given as “stabilize”.

In the case of phosphate, the “erythrocyte 2,3-BPG” value [3] is listed as “significant increase”.

In the case of `CCCCC[C@H](O)/C=C/[C@H]1[C@H](O)CC(=O)[C@@H]1C/C=C\CCCC(=O)O` [PGE2, reference compound], the “iron incorporation in RBC” value (RBC) is given as “significant increase” and the “kidney production of EPO” value (kidney production of EPO) is given as “increased”.

B1: Nattokinase: potent fibrinolytic enzyme extracted from a Japanese food called Natto (protein, UniProt P35835 107-381, looked up)
Subtilisin NAT: AQSVPYGISQIKAPALHSQGYTGSNVKVAVIDSGIDSSHPDLNVRGGASFVPSETNPYQDGSSHGTHVAGTIAALNNSIGVLGVAPSASLYAVKVLDSTGSGQYSWIINGIEWAISNNMDVINMSLGGPTGSTALKTVVDKAVSSGIVVAAAAGNEGSSGSTSTVGYPAKYPSTIAVGAVNSSNQRASFSSVGSELDVMAPGVSIQSTLPGGTYGAYNGTSMATPHVAGAAALILSKHPTWTNAQVRDRLESTATYLGNSFYYGKGLINVQAAAQ
For B1, the “time to regain normal blood circulation” value (induced clots) is listed as “within five hours”, the “ability to dissolve blood clots” value (blood clots) is listed as “heightened ability to dissolve blood clots” and the “regain in blood flow” value (blood flow) is listed as 62%.

B2: plasmin: the body's natural fibrinolytic enzyme (protein, UniProt P00747 20-580; P00747 581-810, looked up)
Plasmin heavy chain A: EPLDDYVNTQGASLFSVTKKQLGAGSIEECAAKCEEDEEFTCRAFQYHSKEQQCVIMAENRKSSIIIRMRDVVLFEKKVYLSECKTGNGKNYRGTMSKTKNGITCQKWSSTSPHRPRFSPATHPSEGLEENYCRNPDNDPQGPWCYTTDPEKRYDYCDILECEEECMHCSGENYDGKISKTMSGLECQAWDSQSPHAHGYIPSKFPNKNLKKNYCRNPDRELRPWCFTTDPNKRWELCDIPRCTTPPPSSGPTYQCLKGTGENYRGNVAVTVSGHTCQHWSAQTPHTHNRTPENFPCKNLDENYCRNPDGKRAPWCHTTNSQVRWEYCKIPSCDSSPVSTEQLAPTAPPELTPVVQDCYHGDGQSYRGTSSTTTTGKKCQSWSSMTPHRHQKTPENYPNAGLTMNYCRNPDADKGPWCFTTDPSVRWEYCNLKKCSGTEASVVAPPPVVLLPDVETPSEEDCMFGNGKGYRGKRATTVTGTPCQDWAAQEPHRHSIFTPETNPRAGLEKNYCRNPDGDVGGPWCYTTNPRKLYDYCDVPQCAAPSFDCGKPQVEPKKCPGR
Plasmin light chain B: VVGGCVAHPHSWPWQVSLRTRFGMHFCGGTLISPEWVLTAAHCLEKSPRPSSYKVILGAHQEVNLEPHVQEIEVSRLFLEPTRKDIALLKLSSPAVITDKVIPACLPSPNYVVADRTECFITGWGETQGTFGAGLLKEAQLPVIENKVCNRYEFLNGRVQSTELCAGHLAGGTDSCQGDSGGPLVCFEKDKYILQGVTSWGLGCARPNKPGVYVRVSRFVTWIEGVMRNN
modifications: plasmin
notes: the body's natural fibrinolytic enzyme
In the case of B2, the “regain in blood flow” value (blood flow) is listed as 15.8%.
